The assay deals with Neuraminidase (Influenza A virus, UniProt Q6Q793).

This is an account of results in ChEMBL document CHEMBL2203066 (J Med Chem, 2012).

The term IC50 denotes the concentration needed to halve the response being measured. Higher therefore signals weaker potency in that assay. `CCC(CC)O[C@@H]1C=C(P(=O)(O)O)C[C@H](NC(=N)N)[C@H]1NC(C)=O` had an IC50 of 0.04 nM.
`CCOP(=O)(O)C1=C[C@@H](OC(CC)CC)[C@H](NC(C)=O)[C@@H](N)C1` [TAMIPHOSPHOR MONOETHYL ESTER] registered an IC50 of 2.2 nM.
